Measurements reported in patent publication US4520022A, “Substituted vinyl cephalosporins” (priority 1983, dated 1985).
Values after ≈ are worked out from the molar mass of the structure shown. Read-outs that look alike come from different tables or passages of the source.

What was measured:
S. aureus Smith = assay: Protective dose, mice infected with lethal inoculum, oral treatment, S. aureus Smith; format: in vivo; settings: Staphylococcus aureus, po, 120 h, oral, read-out: Protective dose (PD50), S. aureus Smith
E. coli Juhl = assay: Protective dose, mice infected with lethal inoculum, oral treatment, E. coli Juhl; format: in vivo
[1] = mouse, in vivo
in vivo = settings: mouse; for half-life: T1/2
[2] = tested on: Gp Ib: S. aureus 193, BX-1633-2 A9606, A15092, Russell, A9602; settings: Staphylococcus aureus
[3] = tested on: Gp Ia: S. aureus Smith A9537, A9497, Terajima, A9534, A9601; settings: Staphylococcus aureus
bacteria = assay: Antibacterial activity, general statements; settings: in words
[4] = tested on: Gp Ia, Gp Ib, Gn Ia organisms of Table 2; assay: Test medium comparison, agar dilution MIC, Mueller-Hinton agar versus nutrient agar
S. aureus BX-1633 = assay: Protective dose PD50, mice infected with lethal inoculum, oral treatment, S. aureus BX-1633; format: in vivo; settings: Staphylococcus aureus, BX1633, 120 h
S. pyogenes A20201 = assay: Protective dose PD50, mice infected with lethal inoculum, oral treatment, S. pyogenes A20201; format: in vivo; settings: Streptococcus pyogenes, 120 h
H. influenza A9729 = assay: Protective dose PD50, mice infected with lethal inoculum, oral treatment, H. influenza A9729; format: in vivo; settings: Mus musculus, 120 h
Excerpt: The structure activity correlations drawn from the foregoing in vitro studies are born out by the results of in vivo studies in mice. Table 4 is a tabulation of the protective doses for mice infected with a lethal inoculum of a bacteria. Two different bacteria were employed in the studies, one a Gram+ organism and the other a Gram- organism. The protective dose (PD50) is that dose which when administered to a group of infected mice results in 50% survival after five days. Normally untreated infected mice die within three days following injection of the lethal inoculum.
Protective Dose PD50 for Mice Infected with Lethal Inoculum

P. mirabilis A9554 = assay: Protective dose PD50, mice infected with lethal inoculum, oral treatment, P. mirabilis A9554; format: in vivo
S. pyogenes = assay: In vitro activity against Streptococci (MIC), S. pyogenes; format: cell-based; settings: Streptococcus pyogenes, Compound 9 lot 2
S. pneumoniae = assay: In vitro activity against Streptococci (MIC), S. pneumoniae; format: cell-based; settings: Streptococcus pneumoniae, Compound 9 lot 2
N. gonorrheae = assay: In vitro activity against Neisseria (MIC), N. gonorrheae; format: cell-based
N. meningitidis = assay: In vitro activity against Neisseria (MIC), N. meningitidis; format: cell-based
H. influenzae = assay: In vitro activity against Haemophilis (MIC), H. influenzae; format: cell-based; settings: Haemophilus influenzae, Compound 9 lot 2
[5] = read-out: Minimum Inhibitory Concentration Gp Ib, Mueller-Hinton agar, run 1, average of five organisms
[6] = read-out: Minimum Inhibitory Concentration Gp Ib, Mueller-Hinton agar, run 2, average of five organisms
[7] = read-out: Minimum Inhibitory Concentration Gp Ia, Mueller-Hinton agar, run 1, average of five organisms
[8] = read-out: Minimum Inhibitory Concentration Gp Ia, Mueller-Hinton agar, run 2, average of five organisms

## C/C=C\C1=C(C(=O)O)N2C(=O)[C@@H](NC(=O)[C@H](N)c3ccccc3)[C@H]2SC1 [Compound 24, 7β-(D(-)-2-Amino-2-phenylacetamido)-3-[(Z)-1-propen-1-yl]-3-cephem-4-carboxylic acid]
S. aureus Smith; 50% survival for 5 days, groups of 5 mice
  ED50: 0.18 mg/kg
E. coli Juhl; Escherichia coli, po, 120 h, oral, 50% survival for 5 days, groups of 5 mice, read-out: Protective dose (PD50), E. coli Juhl
  ED50: 1.5 mg/kg
E. coli Juhl; in words
  activity against the Gram- infection: more active against the Gram- infection
[1]; im, 20 mg/kg
  T1/2: 0.58 h
[1]; po, 20 mg/kg
  T1/2: 0.69 h
[1]; po, 100 mg/kg
  T1/2: 1.1 h
In vivo; im, 20 mg/kg, AUC*
  AUC: 22000 ng·h/mL
In vivo; im, 20 mg/kg
  Cmax: 31000 ng/mL
  half-life: 0.5 h
In vivo; po, 20 mg/kg, AUC*
  AUC: 15000 ng·h/mL
In vivo; po, 20 mg/kg
  Cmax: 7800 ng/mL
  half-life: 1.3 h
In vivo; po, 100 mg/kg, AUC
  AUC: 84000 ng·h/mL
In vivo; po, 100 mg/kg
  Cmax: 40000 ng/mL
  half-life: 1.1 h
[2]; [5]
  MIC: 0.92 µg/mL (≈ 2.46 µM)
[2]; [6]
  MIC: 0.92 µg/mL (≈ 2.46 µM)
[3]; [7]
  MIC: 0.23 µg/mL (≈ 0.616 µM)
[3]; [8]
  MIC: 0.3 µg/mL (≈ 0.803 µM)

## C/C=C\C1=C(C(=O)O)N2C(=O)[C@@H](NC(=O)[C@H](N)c3ccc(O)c(OC)c3)[C@H]2SC1 [Compound 42, 7β-[D(-)-2-Amino-2-(4-hydroxy-3-methoxyphenyl)acetamido]-3-[(Z)-1-propen-1-yl]-3-cephem-4-carboxylic Acid]
S. aureus Smith; separate run of Compound 42 and BMY28100, cephalexin/cefadroxil controls not available
  ED50: 0.09 mg/kg
bacteria
  antibacterial activity: high in vitro and in vivo activity
[4]
  difference in MIC between the two media: less than three fold
[2]; read-out: Minimum Inhibitory Concentration Gp Ib, Mueller-Hinton agar, not part of run 1, tested separately, average of five organisms
  MIC: 1.2 µg/mL (≈ 2.86 µM)
[2]; read-out: Minimum inhibitory Concentration Gp Ib, Test Medium Comparison, A: Mueller-Hinton agar, average values
  MIC: 1.2 µg/mL (≈ 2.86 µM)
[2]; read-out: Minimum inhibitory Concentration Gp Ib, Test Medium Comparison, B: Nutrient agar, average values
  MIC: 0.4 µg/mL (≈ 0.954 µM)
[3]; read-out: Minimum Inhibitory Concentration Gp Ia, Mueller-Hinton agar, not part of run 1, tested separately, average of five organisms
  MIC: 0.35 µg/mL (≈ 0.834 µM)
[3]; read-out: Minimum inhibitory Concentration Gp Ia, Test Medium Comparison, A: Mueller-Hinton agar, average values
  MIC: 0.35 µg/mL (≈ 0.834 µM)
[3]; read-out: Minimum inhibitory Concentration Gp Ia, Test Medium Comparison, B: Nutrient agar, average values
  MIC: 0.23 µg/mL (≈ 0.548 µM)

## CC1=C(C(=O)O)N2C(=O)[C@@H](NC(=O)[C@H](N)c3ccc(O)cc3)[C@H]2SC1 [Cefadroxil]
S. aureus BX-1633
  ED50: 7.2 mg/kg
S. pyogenes A20201
  ED50: 0.25 mg/kg
H. influenza A9729
  ED50: 25 mg/kg
P. mirabilis A9554
  Protective Dose PD50: 14
S. pyogenes; S. pyogenes A9604, read-out: MIC
  MIC: 0.8 µg/mL (≈ 2.2 µM)
S. pyogenes; S. pyogenes A15040, read-out: MIC
  MIC: 0.8 µg/mL (≈ 2.2 µM)
S. pyogenes; S. pyogenes A20065, read-out: MIC
  MIC: 0.8 µg/mL (≈ 2.2 µM)
S. pyogenes; S. pyogenes A20201, read-out: MIC
  MIC: 0.4 µg/mL (≈ 1.1 µM)
S. pyogenes; S. pyogenes Dick, read-out: MIC
  MIC: 0.8 µg/mL (≈ 2.2 µM)
S. pyogenes; S. pyogenes S-23, Dick, A9604, A20065, A15040, read-out: MIC, Geometric Mean
  MIC: 0.8 µg/mL (≈ 2.2 µM)
S. pyogenes; S. pyogenes S-23, read-out: MIC
  MIC: 0.8 µg/mL (≈ 2.2 µM)
S. pneumoniae; S. pneumoniae A9585, read-out: MIC
  MIC: 1.6 µg/mL (≈ 4.4 µM)
S. pneumoniae; S. pneumoniae A15069, read-out: MIC
  MIC: 1.6 µg/mL (≈ 4.4 µM)
S. pneumoniae; S. pneumoniae A20759, read-out: MIC
  MIC: 3.1 µg/mL (≈ 8.53 µM)
S. pneumoniae; S. pneumoniae Type I, read-out: MIC
  MIC: 1.6 µg/mL (≈ 4.4 µM)
S. pneumoniae; S. pneumoniae Type II, I, III, A9585, A15069, read-out: MIC, Geometric Mean
  MIC: 1.6 µg/mL (≈ 4.4 µM)
S. pneumoniae; S. pneumoniae Type II, read-out: MIC
  MIC: 1.6 µg/mL (≈ 4.4 µM)
S. pneumoniae; S. pneumoniae Type III, read-out: MIC
  MIC: 1.6 µg/mL (≈ 4.4 µM)
N. gonorrheae; N. gonorrheae A20142, Compound 9 lot 2
  MIC: 6.3 µg/mL (≈ 17.3 µM)
N. gonorrheae; N. gonorrheae A20143, Compound 9 lot 2
  MIC: 6.3 µg/mL (≈ 17.3 µM)
N. gonorrheae; N. gonorrheae A20154, Compound 9 lot 2
  MIC: 6.3 µg/mL (≈ 17.3 µM)
N. gonorrheae; N. gonorrheae A20155, Compound 9 lot 2
  MIC: 6.3 µg/mL (≈ 17.3 µM)
N. gonorrheae; read-out: MIC
  MIC: 6.3 µg/mL (≈ 17.3 µM)
N. gonorrheae; read-out: MIC, Geometric Mean
  MIC: 6.3 µg/mL (≈ 17.3 µM)
N. meningitidis; N. meningitidis A21487, Compound 9 lot 2
  MIC: 6.3 µg/mL (≈ 17.3 µM)
N. meningitidis; N. meningitidis A21496, Compound 9 lot 2
  MIC: 6.3 µg/mL (≈ 17.3 µM)
N. meningitidis; N. meningitidis A21497, Compound 9 lot 2
  MIC: 6.3 µg/mL (≈ 17.3 µM)
N. meningitidis; Neisseria meningitidis, read-out: MIC
  MIC: 6.3 µg/mL (≈ 17.3 µM)
N. meningitidis; Neisseria meningitidis, read-out: MIC, Geometric Mean
  MIC: 6.3 µg/mL (≈ 17.3 µM)
H. influenzae; H. influenzae A9729, read-out: MIC
  MIC: 6.3 µg/mL (≈ 17.3 µM)
H. influenzae; H. influenzae A9833, read-out: MIC
  MIC: 6.3 µg/mL (≈ 17.3 µM)
H. influenzae; H. influenzae A20177, read-out: MIC
  MIC: 6.3 µg/mL (≈ 17.3 µM)
H. influenzae; H. influenzae A20193, read-out: MIC
  MIC: 6.3 µg/mL (≈ 17.3 µM)
H. influenzae; H. influenzae A21523, read-out: MIC
  MIC: 6.3 µg/mL (≈ 17.3 µM)
H. influenzae; H. influenzae A22157, read-out: MIC
  MIC: 6.3 µg/mL (≈ 17.3 µM)
H. influenzae; H. influenzae A22481, read-out: MIC
  MIC: 6.3 µg/mL (≈ 17.3 µM)
H. influenzae; H. influenzae A22482, read-out: MIC
  MIC: 6.3 µg/mL (≈ 17.3 µM)
H. influenzae; H. influenzae A22483, read-out: MIC
  MIC: 6.3 µg/mL (≈ 17.3 µM)
H. influenzae; H. influenzae A22491, read-out: MIC
  MIC: 6.3 µg/mL (≈ 17.3 µM)
H. influenzae; H. influenzae, seven strains above, read-out: MIC, Geometric Mean
  MIC: 6.3 µg/mL (≈ 17.3 µM)
[1]; im, 20 mg/kg
  T1/2: 0.37 h
[1]; po, 20 mg/kg
  T1/2: 1.6 h
[1]; po, 100 mg/kg
  T1/2: 1.5 h
In vivo; im, 20 mg/kg, AUC*
  AUC: 14000 ng·h/mL
In vivo; im, 20 mg/kg
  Cmax: 21000 ng/mL
  half-life: 0.33 h
In vivo; po, 20 mg/kg, AUC*
  AUC: 18000 ng·h/mL
In vivo; po, 20 mg/kg
  Cmax: 12000 ng/mL
  half-life: 1.2 h
In vivo; po, 100 mg/kg, AUC
  AUC: 103000 ng·h/mL
In vivo; po, 100 mg/kg
  Cmax: 56000 ng/mL
  half-life: 2.3 h
[2]; [5]
  MIC: 3.6 µg/mL (≈ 9.91 µM)
[2]; [6]
  MIC: 4.1 µg/mL (≈ 11.3 µM)
[3]; [7]
  MIC: 1.2 µg/mL (≈ 3.3 µM)
[3]; [8]
  MIC: 1.1 µg/mL (≈ 3.03 µM)
